# Results taken from ChEMBL document CHEMBL1133360, “Design, synthesis, and biological activity of a cyclic peptide: an inhibitor of HIV-1 tat-TAR interactions in human cells” (Bioorg Med Chem Lett, 2000).
# Where a SMILES comes first, the peptide text is derived from it. [ ]: non-standard residue; d: D form.
# What was measured:
# Homo sapiens = species on record: Homo sapiens; test: Percent of Tat-activation inhibited at 500 uM of the compound; type: functional
# [1] = Inhibitory activity of compound was tested against transcriptional activation by Tat protein in human cells; type: functional, cell-based
Structure (SMILES),inhibition (Homo sapiens) [%],IC50 [1] [nM]
NCCCC[C@@H]1NC(=O)[C@@H](N)CCCCNC(=O)CC[C@@H](C(=O)O)NC(=O)[C@H](CC(N)=O)NC(=O)[C@@H](CCCCN)NC1=O,> 90,~40
NCCCC[C@H](N)C(=O)N[C@H](CCCCN)C(=O)N[C@@H](CC(N)=O)C(=O)O (H-Lys-[dK]-Asn-OH),,~50
